Source: patent US5474992A, “Method of treatment with pharmaceutical composition for renal disorder and a dialysis solution for extracorporeal hemodialysis” (Senju Pharmaceutical Co., Ltd., priority 1993, dated 1995)

Key:
[1] = Acute toxicity (LD50) in rats; settings: rat, in vivo
Method: The compound of this invention for use as the active ingredient of said pharmaceutical composition or dialysis solution is extremely low in toxicity and highly safe and, therefore, can be used advantageously for purposes of this invention [e.g. the LD50 values of L-ascorbyl DL-α-tocopheryl phosphate potassium (hereinafter referred to briefly as EPC-K)≥5 g/kg p.o. (rats) and≥100 mg/kg i.v. (rats)].

[2] = tested on: rats with vitamin E deficiency; test: Effect on renal impairment in rats with vitamin E deficiency (DL-buthionine sulfoximine induced); assay type: in vivo, male Wistar rats; settings: 141 mg/5 ml/kg p.o. once daily for one week, vitamin E-deficient rats + BSO, mean ± standard error, n=5
Method: The effect of the compound of this invention, administered orally, on renal impairment in rats with vitamin E deficiency was evaluated.
Test substance: L-ascorbyl DL-α-tocopheryl phosphate potassium (abbreviation: EPC-K).
Method: Male Wistar rats were purchased from Japan Clea, Inc. at the age of 4 weeks and put on a vitamin E-deficient diet for 10 weeks before the experiment.
The rat model of renal impairment was constructed by administering 1 mmol/kg of DL-buthionine sulfoximine (abbreviation: BSO), a glutathione (abbreviation: GSH) synthesis inhibitor, intraperitoneally once a day for 3 consecutive days.
Five hours after the last administration of DL-buthionine sulfoximine (BSO), the blood was drawn from the lower abdominal aorta under pentobarbital anesthesia and the serum levels of creatinine, urea nitrogen (abbreviation: BUN) and lipid peroxide (abbreviation: LPO), which are indicators of renal function, were determined by Jaffe's method, urease-indophenol method, and Yagi's method, respectively.
The test substance EPC-K was administered orally in a dose of 141 mg/5 ml/kg once daily for one week until the blood sampling day. As a control, distilled water was used.

[3] = tested on: adriamycin nephrosis in rats; test: Effect on adriamycin nephrosis in rats; assay type: in vivo, male SD rats; settings: 1 mg/kg, i.p. once daily, day 80, mean ± standard error, n=5 to 6
Method: The effect of the compound of this Invention on adriamycin nephrosis in rats was evaluated.
Method: This study was conducted in male SD rats (body weight: about 180 g) purchased from Japan SLC. The rats were intravenously dosed with 7.5 mg/kg of adriamycin to induce renal impairment.
The test substance EPC-K was administered intraperitoneally once daily and the rat was sacrificed on day 80 for determination of biochemical parameters. Physiological saline was used as control.

[4] = tested on: salt-sensitive rats; test: Effect on salt-sensitive rats (NaCl-induced renal impairment); assay type: in vivo, male Dahl S rats; settings: mean ± standard error, n=4 to 6, * p < 0.0001, control 30.0 ± 2.9
Method: The effect of the compound of this invention on salt-sensitive rats was investigated.
Method: Male Dahl S rats (salt-sensitive rats) were purchased from Seiwa Experimental Animal Institute and loaded with 8% aqueous solution of sodium chloride to induce renal impairment.
The test substance EPC-K was administered once daily for 4 weeks. As a control, distilled water was orally administered.

[5] = tested on: adenine nephrosis in rats; test: Effect on adenine nephrosis in rats; assay type: in vivo, male Wistar rats; settings: i.p. once a day, mean ± standard error, n=8 to 9; for Creatinine: control (saline) 1.95 ± 0.64; for BUN: control (saline) 98.4 ± 34.5
Method: The effect of the compound of this invention on adenine nephrosis in rats was evaluated.
Method: Male Wistar rats, aged 7 weeks, were purchased from SLC and used.
The rats were put on a 0.5% adenine-containing diet for 30 days to induce adenine nephrosis.
The test substance EPC-K was intraperitoneally administered once a day. Physiological saline was used as control.

[6] = tested on: neutrophil-derived active oxygens formed due to the dialysis membrane; test: Chemiluminescence assay of scavenging effect on neutrophil-derived active oxygens formed due to the dialysis membrane; assay type: cell-based, SD rat; settings: PMMA membrane, MCLA; for Chemiluminescence photon count: mean ± standard deviation, n=5, blank test 42392 ± 12789
Method: The scavenging effect of the compound of this invention on the neutrophil-derived active oxygens formed due to the dialysis membrane was evaluated by the chemiluminescence assay.
An SD rat was intraperitoneally infused with 120 ml/kg of 1% casein-containing Krebs-Ringer bicarbonate buffer (Ca^2+ -free) and kept as it was for 15 to 18 hours. Then, ice-cooled phosphate buffered saline (Ca^2+ /Mg^2+ -free, briefly PBS) was infused into the peritoneal cavity and after massaging the abdomen, laparotomy was performed to collect the peritoneal fluid. This fluid was centrifuged (4° C.) at 150G for 5 minutes and the sediment was subjected to hemolysis treatment, washed with 2 portions of PBS and suspended in Hanks buffered saline (Ca^2+ /Mg^2+ -free; abbreviation: HBS) at a concentration of 5×10^6 cells/ml.
The hollow fiber of polymethyl methacrylate (PMMA) was taken out from the Filtrizer cartridge, rinsed and dried. The dried hollow fiber was milled in a mortar (to a particle diameter of about 20 to 100 μm) and suspended in HBS at a concentration of 100 mg/ml.
MCLA (2-methyl-6-[p-methoxyphenyl]-3,7,-dihydroimidazolo[1,2-a]pyrazin-3-one)(Cypridina luciferin analog; manufactured by Tokyo Kasei Kogyo Co., Ltd.) was dissolved in HBS at a concentration of 5 μM.
EPC-K was dissolved in HBS at final concentrations of 1 μM to 10 μM. To 100 μl of each solution were added 300 μl of the neutrophil suspension and 100 μl of the MCLA solution and the mixture was incubated at 37° for 10 minutes. Then, 20 μl of the PMMA suspension was added and the resulting MCLA-dependent chemiluminescence was quantitated in 5 replicates. From the photon count at maximal emission was subtracted the minimal count immediately following addition of the PMMA suspension to arrive at the chemiluminescence photon count (CPM). The count obtained with HBS (blank test) was compared with the count obtained with the drug and the percent inhibition (%) was calculated by means of the following equation. [formula]

Cc1c(C)c2c(c(C)c1OP(=O)(O)OC1=C(O)[C@@H]([C@@H](O)CO)OC1=O)CCC(C)(CCCC(C)CCCC(C)CCCC(C)C)O2 (mixture of isomers) [EPC-K, L-ascorbyl DL-α-tocopheryl phosphate potassium]
LD50 ([1]; iv, i.v. (rats)): ≥ 100 mg/kg
LD50 ([1]; po, p.o. (rats)): ≥ 5000 mg/kg
Creatinine (serum) ([2]; * p < 0.05, distilled water 5.8 ± 0.2): 2.0 ± 1.3 mg/dL
BUN (serum) ([2]; ** p < 0.01, distilled water 208.5 ± 17.7): 62.5 ± 37.1 mg/dL
LPO (serum lipid peroxide) ([2]; distilled water 5.4 ± 0.9): 3.8 ± 0.1 nmol/mL
BUN ([3]; * p < 0.0001, control (saline) 23.5 ± 1.7): 18.2 ± 1.2 mg/dL
Creatinine ([3]; control (saline) 0.50 ± 0.28): 0.30 ± 0 mg/dL
LPO ([3]; control (saline) 2.5 ± 1.8): 1.4 ± 0.8 nmol/mL
Urinary protein ([3]; control (saline) 696 ± 710): 119 ± 54 mg/day
BUN ([4]; 5 mg/kg, i.p. once daily for 4 weeks): 15.6 ± 2.7 mg/dL
BUN ([4]; 141 mg/kg, p.o. once daily for 4 weeks): 18.5 ± 2.1 mg/dL
Creatinine ([5]; 5 mg/kg, * p < 0.05): 1.14 ± 0.32 mg/dL
BUN ([5]; 5 mg/kg, * p < 0.05): 61.5 ± 13.2 mg/dL
Creatinine ([5]; 10 mg/kg, ** p < 0.01): 0.73 ± 0.15 mg/dL
BUN ([5]; 10 mg/kg, ** p < 0.01): 40.2 ± 5.2 mg/dL
Chemiluminescence photon count ([6]; 1 μM): 32230 ± 6949 CPM
Chemiluminescence photon count ([6]; 3 μM): 26800 ± 3057 CPM
Chemiluminescence photon count ([6]; 10 μM): 14518 ± 3648 CPM
inhibition at 1 µM ([6]; Rattus norvegicus, 1 μM, versus blank test (HBS), read-out: Percent inhibition): 24%
inhibition at 3 µM ([6]; Rattus norvegicus, 3 μM, versus blank test (HBS), read-out: Percent inhibition): 36.8%
inhibition at 10 µM ([6]; Rattus norvegicus, 10 μM, versus blank test (HBS), read-out: Percent inhibition): 65.8%
